# From ChEMBL document CHEMBL3763143, “Novel morpholine scaffolds as selective dopamine (DA) D3 receptor antagonists” (Bioorg Med Chem Lett, 2016)
# Assays:
# [1] = molecular target: D(3) dopamine receptor (Rattus norvegicus, UniProt P19020)
# Description: Displacement of [125I]-7-OH-PIPAT from rat brain dopamine D3 receptor after 45 mins by microplate scintillation counting analysis
# [2] = molecular target: T1, D(3) dopamine receptor (Homo sapiens, UniProt P35462); assay: Agonist activity at human dopamine D3 receptor expressed in CHO cells after 90 mins by [35S]-GTPgamma S assay; type: cell-based
# [3] = molecular target: T1, D(3) dopamine receptor; assay: Antagonist activity at human dopamine D3 receptor expressed in CHO cells after 90 mins by [35S]-GTPgamma S assay; type: cell-based
# [4] = molecular target: Voltage-gated inwardly rectifying potassium channel KCNH2 (Homo sapiens, UniProt Q12809); assay: Displacement of [3H]-dofetilide from human ERG potassium channel by scintillation proximity assay
# Chain of Voltage-gated inwardly rectifying potassium channel KCNH2 (Q12809 whole entry): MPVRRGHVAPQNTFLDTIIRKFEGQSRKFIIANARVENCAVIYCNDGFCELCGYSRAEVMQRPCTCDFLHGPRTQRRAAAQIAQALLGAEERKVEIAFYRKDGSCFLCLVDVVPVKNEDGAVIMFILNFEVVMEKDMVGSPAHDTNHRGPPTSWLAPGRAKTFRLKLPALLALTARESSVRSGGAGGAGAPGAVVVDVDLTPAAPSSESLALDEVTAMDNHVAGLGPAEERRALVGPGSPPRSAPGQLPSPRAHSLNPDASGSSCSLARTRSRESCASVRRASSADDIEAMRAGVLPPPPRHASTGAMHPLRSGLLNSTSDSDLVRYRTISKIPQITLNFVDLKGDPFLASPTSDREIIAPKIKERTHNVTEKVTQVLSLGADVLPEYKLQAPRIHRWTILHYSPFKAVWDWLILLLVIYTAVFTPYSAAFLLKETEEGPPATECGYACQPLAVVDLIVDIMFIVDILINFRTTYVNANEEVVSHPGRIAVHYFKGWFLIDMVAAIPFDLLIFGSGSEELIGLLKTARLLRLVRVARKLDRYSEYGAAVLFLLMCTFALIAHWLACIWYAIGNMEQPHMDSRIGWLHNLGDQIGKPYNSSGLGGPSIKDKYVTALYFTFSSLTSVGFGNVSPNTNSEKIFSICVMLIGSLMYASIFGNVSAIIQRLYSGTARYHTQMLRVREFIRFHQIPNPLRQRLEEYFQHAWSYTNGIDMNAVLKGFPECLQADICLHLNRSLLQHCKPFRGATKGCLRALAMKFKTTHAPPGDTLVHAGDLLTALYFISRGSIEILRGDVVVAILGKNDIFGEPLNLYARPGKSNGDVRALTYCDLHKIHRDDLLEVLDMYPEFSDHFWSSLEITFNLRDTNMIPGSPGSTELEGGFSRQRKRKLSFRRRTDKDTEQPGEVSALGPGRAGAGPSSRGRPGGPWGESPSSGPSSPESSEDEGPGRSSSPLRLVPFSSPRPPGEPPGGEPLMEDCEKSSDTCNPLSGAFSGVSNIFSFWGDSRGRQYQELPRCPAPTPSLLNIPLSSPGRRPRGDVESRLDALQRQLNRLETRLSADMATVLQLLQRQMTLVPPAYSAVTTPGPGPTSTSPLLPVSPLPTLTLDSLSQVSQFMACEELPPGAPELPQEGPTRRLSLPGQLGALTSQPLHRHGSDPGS
# [5] = molecular target: Dopamine receptor D2 and D3 (Rattus norvegicus) (UniProt P19020+P61169); assay: Selectivity ratio of Ki for rat brain dopamine D2 receptor to Ki for rat brain dopamine D3 receptor
# Chain of Dopamine receptor D2 and D3 (Rattus norvegicus) (P19020 whole entry, looked up): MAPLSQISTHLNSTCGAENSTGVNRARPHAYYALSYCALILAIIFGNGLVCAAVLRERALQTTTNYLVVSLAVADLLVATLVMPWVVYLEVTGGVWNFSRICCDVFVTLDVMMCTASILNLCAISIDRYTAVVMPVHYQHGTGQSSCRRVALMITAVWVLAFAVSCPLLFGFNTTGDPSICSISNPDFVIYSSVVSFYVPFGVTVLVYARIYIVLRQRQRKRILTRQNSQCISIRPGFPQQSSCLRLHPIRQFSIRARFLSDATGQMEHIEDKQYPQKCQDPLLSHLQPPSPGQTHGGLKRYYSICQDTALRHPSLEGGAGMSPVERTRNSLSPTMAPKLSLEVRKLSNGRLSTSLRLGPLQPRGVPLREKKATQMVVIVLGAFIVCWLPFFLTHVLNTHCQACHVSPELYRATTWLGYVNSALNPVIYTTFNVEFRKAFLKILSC
# Chain of Dopamine receptor D2 and D3 (Rattus norvegicus) (P61169 whole entry, looked up): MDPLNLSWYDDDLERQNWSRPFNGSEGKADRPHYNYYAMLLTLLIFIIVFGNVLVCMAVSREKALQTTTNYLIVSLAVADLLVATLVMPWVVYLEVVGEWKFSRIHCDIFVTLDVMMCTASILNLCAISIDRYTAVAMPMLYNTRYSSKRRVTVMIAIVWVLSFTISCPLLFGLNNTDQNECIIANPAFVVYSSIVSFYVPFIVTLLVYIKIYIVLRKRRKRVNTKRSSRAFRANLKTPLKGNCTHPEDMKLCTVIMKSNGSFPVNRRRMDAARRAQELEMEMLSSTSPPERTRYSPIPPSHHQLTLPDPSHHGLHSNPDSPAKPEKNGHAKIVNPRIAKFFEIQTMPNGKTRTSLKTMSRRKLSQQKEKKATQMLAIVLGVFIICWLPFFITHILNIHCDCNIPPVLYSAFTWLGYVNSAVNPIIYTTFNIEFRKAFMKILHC
# T1 sequence (P35462 whole entry): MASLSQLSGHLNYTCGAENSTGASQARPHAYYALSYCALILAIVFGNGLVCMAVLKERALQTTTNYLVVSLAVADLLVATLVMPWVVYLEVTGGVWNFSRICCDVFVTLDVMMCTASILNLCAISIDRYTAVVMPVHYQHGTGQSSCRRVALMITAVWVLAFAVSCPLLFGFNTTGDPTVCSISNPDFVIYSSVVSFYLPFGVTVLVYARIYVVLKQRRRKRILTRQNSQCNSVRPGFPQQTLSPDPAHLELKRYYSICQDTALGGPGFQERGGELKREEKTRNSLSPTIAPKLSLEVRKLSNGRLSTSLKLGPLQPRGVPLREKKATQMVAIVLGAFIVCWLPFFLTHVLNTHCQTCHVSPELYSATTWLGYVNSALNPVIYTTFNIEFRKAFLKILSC
# Chain of D(3) dopamine receptor (Rattus norvegicus, UniProt P19020) (P19020 whole entry): as the sequence (P19020 whole entry, looked up) above
SMILES,Ki [1] [µM],Ki [2] [µM],Ki [3] [µM],Ki [4] [µM],Ratio Ki [5]
Cn1c(SCCCN2CCOC(c3ccc(C(F)(F)F)cc3)C2)nnc1-c1ccncc1 (racemic),0.1,> 10,–,–,–
Cc1ncoc1-c1nnc(SCCCCN2CCOC(c3ccc(C(F)(F)F)cc3)C2)n1C (racemic),0.0794,> 10,0.0251,–,–
Cn1c(SCCCN2CCOC(c3ccc(C(F)(F)F)cc3)C2)nnc1-c1ccc(-c2ncco2)cc1 (racemic),0.00501,> 10,0.01,1,–
Cn1c(SCCCN2CCOC(c3ccc(C(F)(F)F)cc3)C2)nnc1-c1ccsc1 (racemic),0.1,> 10,–,–,–
Cn1c(SCCCN2CCOC(c3ccc(C(F)(F)F)cc3)C2)nnc1-c1cccc(C(N)=O)c1 (racemic),0.316,> 10,–,–,–
Cn1c(SCCCN2CCOC(c3ccc(C(F)(F)F)cc3)C2)nnc1C1CCCCC1 (racemic),0.0398,> 10,0.02,–,200
Cc1ccc(C2CN(CCCSc3nnc(-c4ccc(-c5noc(C)n5)cc4)n3C)CCO2)cc1 (racemic),0.0794,> 10,0.0158,1,–
Cn1cncc1-c1nnc(SCCCN2CCOC(c3ccc(C(F)(F)F)cc3)C2)n1C (racemic),0.631,> 10,–,–,–
Cn1c(SCCCN2CCOC(c3ccc(C(F)(F)F)cc3)C2)nnc1-c1ccc(C(N)=O)nc1 (racemic),0.0316,> 10,0.0158,2,–
Cc1ncoc1-c1nnc(SCCCN2CCOC(c3ccc(C(F)(F)F)cc3)C2)n1C (racemic),0.126,–,–,–,–
Cc1ncoc1-c1nnc(SCCCN2CCOC(c3ccc(C(F)(F)F)cc3F)C2)n1C (racemic),0.2,> 10,–,–,–
Cn1c(SCCCN2CCOC(c3ccc(C(F)(F)F)cc3F)C2)nnc1-c1ccc(C(N)=O)cc1 (racemic),0.0631,> 10,0.0398,–,–
Cn1c(SCCCN2CCOC(c3ccc(C(F)(F)F)cc3)C2)nnc1-c1cccnc1 (racemic),0.251,> 10,–,–,–
Cn1c(SCCCN2CCOC(c3ccc(C(F)(F)F)cc3)C2)nnc1-c1ccc(C#N)cc1 (racemic),0.1,> 10,–,–,–
Cn1cccc1-c1nnc(SCCCN2CCOC(c3ccc(C(F)(F)F)cc3)C2)n1C (racemic),0.126,> 10,–,–,–
Cn1c(SCCCN2CCOC(c3ccc(C(F)(F)F)cc3)C2)nnc1-c1ccc(S(N)(=O)=O)cc1 (racemic),0.126,> 10,–,–,–
Cc1ncoc1-c1nnc(SCCCN2CCOC(c3ccc(Br)cc3)C2)n1C (racemic),0.2,> 10,–,–,–
